Assays:
[1] = system: neonatal rat ventricular myocytes (NRVM); experiment: Cell volume measurement (Coulter counter) of NRVM; type: cell-based; conditions: NRVM stimulated with compound alone
Experimental: (§1) NRVM culture. For preparations of neonatal rat ventricular myocytes (NRVMs), hearts were removed from 10-20 newborn (1-2 days old) Sprague-Dawley rats. Isolated ventricles were pooled, minced and dispersed by three 20-min incubations at 37° C. in Ads buffer (116 mM NaCl, 20 mM HEPES, 10 mM NaH2PO4, 5.5 mM glucose, 5 mM KCl, 0.8 mM MgSO4, pH 7.4) containing collagenase Type II (65 units/ml, Worthington) and pancreatin (0.6 mg/ml, GibcoBRL). Dispersed cells were applied to a discontinuous gradient of 40.5% and 58.5% (v/v) Percoll (Amersham Biosciences), centrifuged, and myocytes collected from the interface layer. Myocyte preparations were pre-plated in Dulbecco's modified Eagle's medium (DMEM, Cellgro), supplemented with 10% (v/v) fetal bovine serum (FBS, HyClone), 4 mM L-glutamine and 1% penicillin/streptomycin for 1 hour at 37° C. to reduce fibroblast contamination, then plated at a density of 2.5×10^5 cells per well on 6-well tissue culture plates (or 10,000 cells/well on 96-well tissue culture plates) coated with a 0.2% (w/v) gelatin solution. […]
(§2) Hypertrophy and toxicity assays. Primary hypertrophy endpoints for NRVM included quantitation of: ANF secretion, total cellular protein and cell volume. ANF in media supernatants was quantitated by competitive ELISA using a monoclonal anti-ANF antibody (Biodesign) and a biotinylated ANF peptide (Phoenix Peptide). Total cellular protein was quantitated by standard Coomassie dye-binding assay; cells were lysed in protein assay reagent (BioRad) and absorbance at A595 was measured after 1 hour. […] After recovery by centrifugation, cell pellets were washed in PBS, resuspended in 10 ml IsoFlow electrolyte solution (Beckman-Coulter) and analyzed with a Z2 Coulter Particle Counter and Size Analyzer (Beckman-Coulter). Cytotoxicity was quantitated by measuring release of adenylate kinase (AK) from cultured NRVM into culture medium (ToxiLight kit, Cambrex).

[2] = system: neonatal rat ventricular myocytes (NRVM); experiment: ANF secretion by competitive ELISA in NRVM; type: cell-based; conditions: NRVM stimulated with compound alone
Experimental: as §1, §2

[3] = system: primary rat neonatal cardiomyocytes; experiment: Immunofluorescence / morphology of cardiomyocyte hypertrophy in NRVM; type: cell-based; conditions: 1 μM, 48 h
Experimental: as §1, with “solution. After 24 hours in culture, myocyte preparations were transferred to serum-free maintenance medium (DMEM supplemented with 0.1% (v/v) Nutridoma (Roche), L-glutamine and penicillin/streptomycin). Where indicated, NRVM were treated with test compounds for a period of 48 h.” for “solution.”

5-HT2C = target: T1, 5-HT2C (Homo sapiens, UniProt P28335); experiment: Radioligand receptor binding assay; conditions: 10 μM compound, n=2
T1 sequence (P28335 33-458): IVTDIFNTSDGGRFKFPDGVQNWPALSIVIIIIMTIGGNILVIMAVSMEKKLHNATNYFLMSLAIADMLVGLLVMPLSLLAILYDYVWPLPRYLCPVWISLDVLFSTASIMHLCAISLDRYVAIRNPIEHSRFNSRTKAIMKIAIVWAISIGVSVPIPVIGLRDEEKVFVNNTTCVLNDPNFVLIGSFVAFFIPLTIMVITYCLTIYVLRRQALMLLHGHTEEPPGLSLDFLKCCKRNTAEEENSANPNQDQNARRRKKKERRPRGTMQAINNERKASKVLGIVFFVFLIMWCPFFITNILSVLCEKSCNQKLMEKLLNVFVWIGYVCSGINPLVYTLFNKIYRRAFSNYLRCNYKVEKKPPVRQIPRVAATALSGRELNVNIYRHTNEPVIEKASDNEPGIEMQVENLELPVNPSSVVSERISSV

[4] = system: MCIP1 exon 4 promoter luciferase reporter; experiment: High throughput MCIP1-luciferase reporter screen in H9c2 muscle cells; type: cell-based, rat; conditions: screen of 20,000 compounds
From the text: A high throughput screen for small molecules that enhance MCIP1 expression in cardiac myocytes. The inventors set out to perform a high throughput screen of a combinatorial small molecule library for compounds capable of increasing MCIP1 expression in cultured H9c2 muscle cells. Toward that end, the inventors used a luciferase reporter gene controlled by the region upstream of exon 4 of the human MCIP1 gene (−874 to +30). This genomic region contains 15 NFAT binding sites and confers calcineurin responsiveness to MCIP1. Transcripts initiated from exon 4 encode a MCIP1 protein with a Mr=28 kD.

[5] = system: neonatal rat ventricular myocytes (NRVM); experiment: Total cellular protein (Coomassie dye-binding) in NRVM; type: cell-based; conditions: NRVM stimulated with compound alone
Experimental: NRVM culture. For preparations of neonatal rat ventricular myocytes (NRVMs), hearts were removed from 10-20 newborn (1-2 days old) Sprague-Dawley rats. Isolated ventricles were pooled, minced and dispersed by three 20-min incubations at 37° C. in Ads buffer (116 mM NaCl, 20 mM HEPES, 10 mM NaH2PO4, 5.5 mM glucose, 5 mM KCl, 0.8 mM MgSO4, pH 7.4) containing collagenase Type II (65 units/ml, Worthington) and pancreatin (0.6 mg/ml, GibcoBRL). Dispersed cells were applied to a discontinuous gradient of 40.5% and 58.5% (v/v) Percoll (Amersham Biosciences), centrifuged, and myocytes collected from the interface layer. […]
as §2, with “Cytotoxicity was quantitated by measuring release of adenylate kinase (AK) from cultured NRVM into culture medium (ToxiLight kit, Cambrex).” left out

beta myosin heavy chain = experiment: Beta myosin heavy chain protein quantitation by cytoblot in NRVM; type: cell-based, rat; conditions: 1 μM, 48 h
Experimental: Beta myosin heavy chain protein quantitation by cytoblot. NRVM were plated overnight in 96-well plates. The next day, medium was replaced with serum-free maintenance medium for 4 hours, and test compounds added. Forty-eight hours later, wells were washed twice with […] PBS, aspirating between washes. Cells were fixed by adding […] methanol for 30 min. Methanol was aspirated and wells washed twice with […] PBS. Next, […] blocking solution (PBS+1% BSA) was added for 1 hr at room temperature. Blocking solution was aspirated and […] primary antibody solution added (β-myosin heavy chain hybridoma supernatant+1% BSA) for 1 hr at room temperature. Primary antibody solution was removed and wells washed three times with […] PBS+1% BSA. Wash was aspirated and […] secondary antibody solution added (1:500 dilution of goat […] HRP conjugate in PBS+1% BSA; Southern Biotech #4050-05) for 1 hr at room temperature. Secondary antibody solution was removed and wells washed three times with […] PBS. Wash was aspirated and […] luminol solution added (Pierce #34080). Plates were read in a 96-well luminometer (Packard Fusion).

[6] = system: neonatal rat ventricular myocytes (NRVM); experiment: Affymetrix gene expression screening of NRVM; type: cell-based; set-up: dose or concentration left out as unconfirmed
From the text: Affymetrix screening. RNA was extracted from unstimulated NRVM and hypertrophic NRVM exposed to compound 18264 […] (Trizol Reagent, GibcoBRL). RNA samples were converted to biotin-labeled cRNA and hybridized to Rat expression arrays (Affymetrix GeneChip). Arrays were then washed, scanned and quantitated as per manufacturer's instructions.

**Q.** `Cc1c(-c2ccccc2)nc2sc3c(c2c1N)CCCC3` [Compound 18264, 3-Methyl-2-phenyl-5,6,7,8-tetrahydro-benzo[4,5]thieno[2,3-b]pyridin-4-ylamine] was tested. Which cell volume [1] did it give?
**A.** increased

**Q.** And the ANF expression/secretion [2]?
**A.** up-regulated ANF expression

**Q.** What about the “induction of myocyte hypertrophy (enlargement, sarcomere assembly)” value [3] of the same molecule?
**A.** extraordinarily potent inducer of myocyte hypertrophy

**Q.** What about the inhibition at 10 µM (5-HT2C) of the same molecule?
**A.** 42%

**Q.** And the “stimulation of MCIP1-luciferase expression” value [4]?
**A.** approximately two-fold

**Q.** What about the total cellular protein [5] of the same molecule?
**A.** increased

**Q.** What about the “expression of fetal beta isoform of myosin heavy chain” value (beta myosin heavy chain) of the same molecule?
**A.** significantly up-regulated

**Q.** And the “-Fold upreg. of Alpha skeletal actin” value [6]?
**A.** 2.1 fold

**Q.** What about the “-Fold upreg. of Atrial natriuretic factor” value [6] of the same molecule?
**A.** 2.3 fold

**Q.** And the “-Fold upreg. of Brain natriuretic factor” value [6]?
**A.** 4.1 fold

**Q.** And the “-Fold upreg. of Myosin heavy chain, embryonic” value [6]?
**A.** 29 fold
